26 compounds from ChEMBL document CHEMBL1144362, “Synthesis and biological evaluation of novel 1,4-naphthoquinone derivatives as antibacterial and antiviral agents” (2005) can be followed below.

In assay [1] the test system is Klebsiella pneumoniae. Description: Minimum inhibitory concentration gainst Klebsiella pneumoniae by broth microdilution technique. Type of assay: functional. Background: Dilution methods test growth across graded concentrations, often in twofold steps.
Assay [2] concerns Staphylococcus aureus. Description: Minimum inhibitory concentration gainst Staphylococcus aureus by broth microdilution technique. Type of assay: functional.
In assay [3] the test system is Enterococcus faecalis. Kind of assay: Minimum inhibitory concentration gainst Streptococcus faecalis by broth microdilution technique. Type of assay: functional.
Assay [4] has as its system Escherichia coli. Kind of assay: Minimum inhibitory concentration gainst Escherichia coli by broth microdilution technique. Type of assay: functional.
Assay [5] has as its system Pseudomonas aeruginosa. Description: Minimum inhibitory concentration gainst Pseudomonas aeruginosa by broth microdilution technique. Type of assay: functional.
The nature of assay [6]: Antiviral activity against poliovirus type 2 infected HeLa cells. In kind it is functional, Poliovirus type2.
A short description of assay [7]: Antiviral activity against poliovirus type 2 infected HeLa cells; control=55. In kind it is functional, Poliovirus type2.

≈ marks a conversion by molar mass, not a printed value.

As to `CC(SC1=C(O)C(=O)c2ccccc2C1=O)C(=O)O` (stereo not given), the MIC in assay [1] is 50 µg/mL (≈ 180 µM); in assay [2] it was 50 µg/mL (≈ 180 µM); in assay [3], 50 µg/mL (≈ 180 µM); in assay [4], 50 µg/mL (≈ 180 µM); in assay [5] it was more than 50 µg/mL.

Consider `Cc1ccc(NC(=O)C(C)SC2=CC(=O)c3ccccc3C2=O)cc1` (stereo not given), for which the MIC in assay [1], in assay [2], in assay [3], in assay [4] and in assay [5] was more than 50 µg/mL each time.

In the case of `CC1=C(SC(C)C(=O)O)C(=O)c2ccccc2C1=O` (stereo not given), the MIC is more than 50 µg/mL in assay [1]; 25 µg/mL (≈ 90.5 µM) in assay [2]; 50 µg/mL (≈ 181 µM) in assay [3]; 50 µg/mL (≈ 181 µM) in assay [4]; more than 50 µg/mL in assay [5].

For the compound `O=C(CSC1=CC(=O)c2ccccc2C1=O)Nc1ccccc1`, the MIC in assay [1] was 50 µg/mL (≈ 155 µM); in assay [2], 12.5 µg/mL (≈ 38.7 µM); in assay [3], 50 µg/mL (≈ 155 µM); in assay [4] it was 50 µg/mL (≈ 155 µM); in assay [5], more than 50 µg/mL.

With `O=C1CSc2c3c(c4ccccc4c2O1)OC(=O)CS3`, the MIC was 25 µg/mL (≈ 82.1 µM) in assay [1]; more than 50 µg/mL in assay [2]; more than 50 µg/mL in assay [3]; more than 50 µg/mL in assay [4]; more than 50 µg/mL in assay [5].

Turning to GENTAMICIN, the MIC is 0.39 µg/mL in assay [1], 0.78 µg/mL in assay [2] and 0.78 µg/mL in assay [5].

For `CC(SC1=CC(=O)c2ccccc2C1=O)C(=O)Nc1ccc([N+](=O)[O-])cc1` (stereo not given), the MIC in assay [1] is more than 50 µg/mL; in assay [2], 25 µg/mL (≈ 65.4 µM); in assay [3], 50 µg/mL (≈ 131 µM); in assay [4], 50 µg/mL (≈ 131 µM); in assay [5] it was more than 50 µg/mL.

In the case of `Cc1ccccc1NC(=O)C(C)SC1=CC(=O)c2ccccc2C1=O` (stereo not given), the MIC in assay [1], in assay [2], in assay [3], in assay [4] and in assay [5] was more than 50 µg/mL throughout.

Take `COc1ccccc1NC(=O)C(C)SC1=CC(=O)c2ccccc2C1=O` (stereo not given): the MIC in assay [1] was 12.5 µg/mL (≈ 34 µM); in assay [2], more than 50 µg/mL; in assay [3], more than 50 µg/mL; in assay [4], more than 50 µg/mL; in assay [5] it was more than 50 µg/mL.

For `O=C1C=CC(=O)c2c(O)c3c(c(O)c21)SCCS3`, the MIC in assay [1], in assay [2], in assay [3], in assay [4] and in assay [5] was more than 50 µg/mL in each case.

For `CC(SC1=CC(=O)c2ccccc2C1=O)C(=O)Nc1cccc2ccccc12` (stereo not given), the MIC in assay [1] is more than 50 µg/mL; in assay [2] it was more than 50 µg/mL; in assay [3] it was more than 50 µg/mL; in assay [4], more than 50 µg/mL; in assay [5] it was 50 µg/mL (≈ 129 µM).

In the case of `O=C(O)CSC1=CC(=O)c2c(O)ccc(O)c2C1=O`, the minimal inhibitory concentration (MIC) in assay [1], in assay [2], in assay [3], in assay [4] and in assay [5] was more than 50 µg/mL each time.

With `O=C(CSC1=CC(=O)c2ccccc2C1=O)Nc1ccc([N+](=O)[O-])cc1`, the MIC is more than 50 µg/mL in assay [1]; 25 µg/mL (≈ 67.9 µM) in assay [2]; 12.5 µg/mL (≈ 33.9 µM) in assay [3]; 6.25 µg/mL (≈ 17 µM) in assay [4]; more than 50 µg/mL in assay [5].

In the case of `O=C(CSC1=CC(=O)c2ccccc2C1=O)Nc1cccc2ccccc12`, the MIC is 25 µg/mL (≈ 66.9 µM) in assay [1]; more than 50 µg/mL in assay [2]; 12.5 µg/mL (≈ 33.5 µM) in assay [3]; 12.5 µg/mL (≈ 33.5 µM) in assay [4]; more than 50 µg/mL in assay [5].

Turning to `CC(SC1=CC(=O)c2ccccc2C1=O)C(=O)Nc1ccccc1` (stereo not given), the MIC in assay [1] was more than 50 µg/mL; in assay [2] it was 25 µg/mL (≈ 74.1 µM); in assay [3] it was 12.5 µg/mL (≈ 37 µM); in assay [4], 6.25 µg/mL (≈ 18.5 µM); in assay [5] it was more than 50 µg/mL.

As for `COc1ccc(NC(=O)CSC2=CC(=O)c3ccccc3C2=O)cc1`, the MIC in assay [1] was 6.25 µg/mL (≈ 17.7 µM); in assay [2] it was 25 µg/mL (≈ 70.7 µM); in assay [3] it was 6.25 µg/mL (≈ 17.7 µM); in assay [4], 12.5 µg/mL (≈ 35.4 µM); in assay [5] it was 50 µg/mL (≈ 141 µM).

Consider `COc1ccc(NC(=O)C(C)SC2=CC(=O)c3ccccc3C2=O)cc1` (stereo not given), for which the MIC in assay [1] is more than 50 µg/mL; in assay [2], 25 µg/mL (≈ 68 µM); in assay [3] it was more than 50 µg/mL; in assay [4], 50 µg/mL (≈ 136 µM); in assay [5], more than 50 µg/mL.

For `O=C(O)CSC1=CC(=O)c2ccccc2C1=O`, in assay [6], the DPM is on record as 675.

Consider `Cc1ccccc1NC(=O)CSC1=CC(=O)c2ccccc2C1=O`, for which the MIC in assay [1] was more than 50 µg/mL; in assay [2] it was 12.5 µg/mL (≈ 37 µM); in assay [3], 50 µg/mL (≈ 148 µM); in assay [4] it was 50 µg/mL (≈ 148 µM); in assay [5], more than 50 µg/mL.

With `CC(SC1=CC(=O)c2c(O)ccc(O)c2C1=O)C(=O)O` (stereo not given), the MIC in assay [1] was 50 µg/mL (≈ 170 µM); in assay [2], more than 50 µg/mL; in assay [3], 25 µg/mL (≈ 85 µM); in assay [4], 50 µg/mL (≈ 170 µM); in assay [5], more than 50 µg/mL.

With `COc1ccccc1NC(=O)CSC1=CC(=O)c2ccccc2C1=O`, the MIC in assay [1] is 25 µg/mL (≈ 70.7 µM); in assay [2] it was more than 50 µg/mL; in assay [3] it was more than 12.5 µg/mL; in assay [4] it was 6.25 µg/mL (≈ 17.7 µM); in assay [5] it was more than 50 µg/mL.

Regarding `Cc1cccc(NC(=O)C(C)SC2=CC(=O)c3ccccc3C2=O)c1` (stereo not given), the minimal inhibitory concentration (MIC) in assay [1], in assay [2], in assay [3], in assay [4] and in assay [5] was more than 50 µg/mL in each case.

For `Oc1ccc(O)c2c1SCCS2`, the MIC in assay [1], in assay [2], in assay [3], in assay [4] and in assay [5] was more than 50 µg/mL throughout.

Turning to `CC(SC1=CC(=O)c2ccccc2C1=O)C(=O)O` (stereo not given), the minimal inhibitory concentration (MIC) is 50 µg/mL (≈ 191 µM) in assay [1]; 25 µg/mL (≈ 95.3 µM) in assay [2]; 50 µg/mL (≈ 191 µM) in assay [3]; 50 µg/mL (≈ 191 µM) in assay [4]; more than 50 µg/mL in assay [5].

As for `O=C1C=CC(=O)c2c(Cl)ccc(O)c21`, in assay [7], the DPM is given as 375.

On to `O=C1C2=C(SCCS2)C(=O)c2ccccc21`, for which the MIC in assay [1] is more than 50 µg/mL; in assay [2] it was more than 50 µg/mL; in assay [3], more than 50 µg/mL; in assay [4] it was more than 50 µg/mL; in assay [5], 50 µg/mL (≈ 201 µM).

A word on the MIC: it is the smallest concentration in the dilution series that meets the test's criterion for growth inhibition. High values mean a less susceptible organism, low ones a more susceptible organism.
